For 3 compounds, refractive index results are on record in the NIST ThermoML archive (doi:10.1016/j.fluid.2005.12.006).

Numbers after ± are expanded uncertainties.

A short description of the data set: refractive index (Na D-line) (dimensionless). The settings on record: 293.1 K; 101.33 kPa; Liquid; Standard Abbe refractometry.
Consider `CCC(C)c1ccccc1` (stereo not drawn) [(1-methylpropyl)benzene], for which the refractive index was determined as 1.489 ± 0.0007.
Turning to `CN(C)C=O` [dimethylformamide], the refractive index worked out at 1.4281 ± 0.0007.
With `CCCCCCCCCCCC` [dodecane], the refractive index stood at 1.422 ± 0.0007.
